Source: BindingDB's records for doi:10.1002/1439-7633(20010601)2 (Universit&Eacute, 2001)

Each molecule was assayed against Acetylcholinesterase (Torpedo marmorata, UniProt P07692) (assay: Enzyme Assay). Conditions: pH 4; 25 °C.
Protocol: The inhibitory activity of the equilibrated mixtures was determined. The activity of AChE was monitored by following the linear change in absorbance at 412 nm over 30s at 25C.

Chain of Acetylcholinesterase (P07692 whole entry): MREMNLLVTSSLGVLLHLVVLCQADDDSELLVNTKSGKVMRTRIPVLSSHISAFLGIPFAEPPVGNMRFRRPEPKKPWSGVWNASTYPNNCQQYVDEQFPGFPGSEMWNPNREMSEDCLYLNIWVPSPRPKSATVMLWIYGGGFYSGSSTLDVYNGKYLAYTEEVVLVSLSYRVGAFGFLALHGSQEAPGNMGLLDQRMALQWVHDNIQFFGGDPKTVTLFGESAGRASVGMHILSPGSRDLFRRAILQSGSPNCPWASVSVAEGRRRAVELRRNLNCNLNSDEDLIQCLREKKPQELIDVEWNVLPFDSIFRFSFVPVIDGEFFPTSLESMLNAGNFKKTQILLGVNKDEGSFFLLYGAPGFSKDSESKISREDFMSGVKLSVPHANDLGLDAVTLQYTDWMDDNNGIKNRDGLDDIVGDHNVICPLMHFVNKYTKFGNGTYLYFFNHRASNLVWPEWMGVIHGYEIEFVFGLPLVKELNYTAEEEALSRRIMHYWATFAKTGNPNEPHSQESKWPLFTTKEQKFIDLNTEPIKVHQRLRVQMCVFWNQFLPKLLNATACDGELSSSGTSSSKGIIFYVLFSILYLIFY

SMILES	IC50
c1cc[n+](CCCCCCCCCCCC[n+]2ccccc2)cc1 [1,12-Bis(pyridinium)dodecane]	16 nM
c1cc[n+](CCCCCCCCCC[n+]2ccccc2)cc1 [1,10-di(1-pyridiniumyl)decane; diiodide]	25.8 nM
O=C(C[n+]1ccccc1)N/N=C/c1ccc(/C=N/NC(=O)C[n+]2ccccc2)cc1 [Terephthalaldehyde, 4-I-4]	2.3 nM
C[N+](C)(C)CCCCCCCCCCCC[N+](C)(C)C [N1,N1,N1,N12,N12,N12-hexamethyldodecane-1,12-diaminium bromide]	93.2 nM
